In PubChem BioAssay (NCI):
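Dose response: 5 concentrations. Exposure: 48 h. Format: 96-well plates. Endpoint: linear interpolation; highest concentration if not reached. Here, GI50 denotes the concentration required for 50% inhibition of growth. Definition used: TGI = concentration required for complete inhibition of growth.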

What was measured:
Test in all cases: NCI tumour cell line growth inhibition, 48 h
[1] = test system: NCI-H23 lung
[2] = test system: SF-539 CNS
[3] = test system: CCRF-CEM leukemia
[4] = test system: SNB-19 CNS
[5] = test system: SK-MEL-28 melanoma
[6] = test system: SNB-75 CNS
[7] = test system: RPMI-8226 leukemia
[8] = test system: SK-OV-3 ovarian
[9] = test system: IGROV1 ovarian
[10] = test system: OVCAR-4 ovarian

Compound | TGI [1] [µM] | TGI [2] [µM] | TGI [3] [µM] | TGI [4] [µM] | TGI [5] [µM] | TGI [6] [µM] | TGI [7] [µM] | TGI [8] [µM] | TGI [9] [µM] | TGI [10] [µM] | GI50 [4] [µM] | GI50 [6] [µM] | GI50 [7] [µM]
CCCCCCCCCCCCCCCCCCOCC(O)COP(=O)(O)OCC1OC(n2cc(F)c(=O)[nH]c2=O)CC1O (configuration not stated) | 16.9 | 12.4 | 16.5 | 25.3 | 28.8 | 27.8 | 22.5 | 44.8 | 26.8 | 32.2 | – | – | –
COC(=O)C(C)Sc1nc2cc(Cl)ccc2s1 (configuration not stated) | > 100 | > 100 | > 100 | > 100 | > 100 | > 100 | > 100 | > 100 | > 100 | > 100 | – | – | –
C=C1C[C@]23C[C@@]1(O)CC[C@H]2[C@@]12C=C[C@H](O)[C@@](C)(C(=O)O1)[C@H]2[C@@H]3C(=O)O | > 100 | > 100 | > 100 | > 100 | > 100 | > 100 | > 100 | > 100 | > 100 | > 100 | – | – | –
COC1/C=C/C(C)C(C(C)C(OC)C(C)CCC(=O)C(C)C(CCC(=O)O)OC)OC(=O)/C=C/C=C(\C)CC(OC)CC2=CC(=O)O[C@@H](C(C)C(OC)CC(OC)/C=C/C(C)C(OC)C1)[C@H]2O (some centres not stated) | > 5 | > 5 | > 1.58 | > 5 | > 3.29 | 2.22 | > 3.94 | 4.06 | 0.948 | > 5 | – | – | –
N#CCCN(CCCN(C(=O)Nc1ccccc1)c1ccccc1)C(=O)Nc1ccccc1 | > 100 | > 100 | > 100 | > 100 | > 100 | > 100 | > 100 | > 100 | > 100 | > 100 | – | – | –
CCOP(=O)(OCC)C(Nc1ccc(F)cc1)c1cccc([N+](=O)[O-])c1 (configuration not stated) | > 100 | > 100 | > 100 | > 100 | > 100 | > 100 | > 100 | > 100 | > 100 | > 100 | – | – | –
CSC1SCC2C(=O)N(C)C3(CC3C)C(=O)OCC(NC(=O)c3nc4ccccc4cc3O)C(=O)NC(C)C(=O)N(C)C1C(=O)N(C)C1(CC1C)C(=O)OCC(NC(=O)c1nc3ccccc3cc1O)C(=O)NC(C)C(=O)N2C (configuration not stated) | < 0.0001 | < 0.0001 | < 0.0001 | 6.9 | < 0.0001 | < 0.0001 | < 0.0001 | 17.2 | 0.281 | 0.000325 | – | – | –
Cc1cc(S(=O)(=O)Nc2nnc3cc(C(F)(F)F)cc(C)n23)c(S)cc1Cl | > 100 | > 96.6 | > 100 | > 86.4 | > 100 | > 100 | > 100 | > 90.2 | > 100 | > 100 | – | – | –
O=C(Nc1cccc(-c2cn3ccccc3n2)c1)c1ccncc1 | 65 | > 100 | 82.5 | > 100 | > 100 | > 100 | 39.7 | > 100 | > 100 | > 100 | – | – | –
CSCCC(NC(=O)OC(C)(C)C)C(=O)NCCNc1ccc(NCCNC(=O)C(CCSC)NC(=O)OC(C)(C)C)c2c1C(=O)c1ccccc1C2=O (configuration not stated) | 15.9 | 6.96 | > 38 | 16.6 | 3.69 | 8.54 | 12.2 | 32.9 | 9.85 | 24.8 | – | – | –
COC(OC)C(O)C1OC=CC1n1cnc2c(N)ncnc21 (configuration not stated) | > 100 | > 100 | > 100 | – | > 100 | > 100 | > 100 | > 100 | > 100 | > 100 | – | – | –
O=C1OS2(OCc3cccc4cccc2c34)c2ccccc21 (configuration not stated) | > 100 | > 100 | > 100 | > 100 | > 100 | > 100 | > 100 | > 100 | > 100 | > 100 | – | – | –
O=C1C=CC(=O)c2ncccc21 | 23.6 | 22.6 | 3.29 | 19.1 | 11.2 | 17.2 | > 22 | 37.2 | 17.6 | 11.4 | – | – | –
O=C1c2ccccc2CC12Cc1ccc3c(c1C2)CCC3 (configuration not stated) | > 100 | 90.2 | 49.3 | > 100 | > 100 | 97.9 | 59.6 | > 100 | > 100 | > 100 | – | – | –
CC(C)(C)N1Cc2ccccc2/C(=C/Sc2ccccc2)C1=O | 24.2 | 24.3 | > 100 | 30.9 | 33.7 | 31.9 | 26 | 31.2 | 24 | 19.6 | – | – | –
N#CCc1nc(C#N)c(N)o1 | > 100 | > 100 | > 100 | > 100 | > 100 | > 100 | > 100 | > 100 | > 100 | > 100 | > 100 | > 100 | > 100
COc1ccc(OC)c2cc(Cc3ccc(N(C)C)cc3)c(=O)c(Cc3ccc(N(C)C)cc3)cc12 | > 100 | > 100 | > 100 | > 100 | > 100 | > 100 | 84.5 | > 100 | > 100 | > 100 | – | – | –
CC[N+](C)(CC)CCN1C(=O)c2ccccc2S1(=O)=O | > 100 | > 100 | > 100 | > 100 | > 100 | > 100 | > 100 | > 100 | > 100 | > 100 | – | – | –
NC(=O)CC(Nc1ncc2c(n1)-c1ccccc1OC2)C(=O)O (configuration not stated) | > 100 | > 100 | > 100 | > 100 | > 100 | > 100 | 82.5 | > 100 | > 100 | > 100 | – | – | –
CCN(CC)CCCNc1ccc2nnn3c4ccc(O)cc4c(=O)c1c23 | 23.5 | 22.8 | 39.8 | 22.8 | 32 | 20.2 | 32.2 | 22.1 | 19.4 | 19.3 | – | – | –
O=[As](O)(O)c1cc(N=Nc2ccc(-c3ccc(N=Nc4cc([As](=O)(O)O)c(O)cc4O)cc3)cc2)c(O)cc1O | > 100 | > 100 | > 80 | > 100 | > 100 | > 100 | > 100 | > 100 | > 100 | > 56.8 | – | – | –
CCOC(=O)C(Cc1ccccc1)(Cc1ccc(O)cn1)NC(=O)c1ccccc1 (configuration not stated) | > 100 | 60.6 | > 100 | > 100 | > 100 | > 100 | > 100 | > 100 | 96.7 | 97.7 | – | – | –
CN1C2CC(=O)CC1[C@@H]1OC(c3ccccc3)O[C@H]21 (some centres not stated) | > 100 | > 100 | > 100 | > 100 | > 100 | > 100 | > 100 | > 100 | > 100 | > 100 | – | – | –
CCOC(=O)C(C(=O)Cc1ccccc1)c1ccccc1 (configuration not stated) | > 100 | > 100 | > 100 | > 100 | > 100 | > 100 | > 100 | > 100 | > 100 | > 100 | – | – | –
